Data reported in patent EP2465581B1, “Non-therapeutic use of a composition for promoting hair growth” (Energenesis Biomedical Co., Ltd., priority 2010, dated 2012).

Tested on: human dermal papilla cells
Experiment: Human dermal papilla cell proliferation test
Type: cell-based
Details: 0.002% in culture media; cell count at 12-60 hour; FIG. 1; result in words
Experimental: The promotion of cell proliferation by adenine was evaluated using human dermal papilla cells, compared with adenosine, and minoxidil under the following conditions, the results are shown in FIG. 1. Determination of the proliferation of human dermal papilla cells in the culture media containing adenine, adenosine, and minoxidil. Supplements: 0.002% of adenine, adenosine, minoxidil. • (1) Prepare 0.002% adenine, adenosine, minoxidil containing testing media using the hair follicle dermal papilla cell media (cat. No. 611-500, Cell applications, Inc) . • (2) Seed the isolated human dermal papilla cells in 96-well culture plate with a density of 5,000 cells per well. Add 0.1 mL prepared culture media into individual well. • (3) At 12, 24, 36, 48 and 60 hour after cell seeding, visually count the total cell number using hemacytometer. • (4) Evaluate the result.

Nc1ncnc2nc[nH]c12 [adenine]
proliferation of human dermal papilla cells: promotes the proliferation
